Laboratory results taken from article PMC6994497, “Structural basis for Glycan-receptor binding by mumps virus hemagglutinin-neuraminidase” (Scientific Reports, 2020).

Biological target: T1, MuV-HN (Mumps orthorubulavirus, UniProt Q9WAF5)
T1 construct: pHLsec N-terminal secretion signal, C-terminal His6 tag; secreted from HEK293S GnTI(-) cells; Ni-NTA and size exclusion
Experiment: STD NMR
Format: binding
Details: deuterated phosphate buffer pH 7.4; reaction mixture after hydrolysis of 1, also free reducing sialic acid

T1 sequence (Q9WAF5 96-582): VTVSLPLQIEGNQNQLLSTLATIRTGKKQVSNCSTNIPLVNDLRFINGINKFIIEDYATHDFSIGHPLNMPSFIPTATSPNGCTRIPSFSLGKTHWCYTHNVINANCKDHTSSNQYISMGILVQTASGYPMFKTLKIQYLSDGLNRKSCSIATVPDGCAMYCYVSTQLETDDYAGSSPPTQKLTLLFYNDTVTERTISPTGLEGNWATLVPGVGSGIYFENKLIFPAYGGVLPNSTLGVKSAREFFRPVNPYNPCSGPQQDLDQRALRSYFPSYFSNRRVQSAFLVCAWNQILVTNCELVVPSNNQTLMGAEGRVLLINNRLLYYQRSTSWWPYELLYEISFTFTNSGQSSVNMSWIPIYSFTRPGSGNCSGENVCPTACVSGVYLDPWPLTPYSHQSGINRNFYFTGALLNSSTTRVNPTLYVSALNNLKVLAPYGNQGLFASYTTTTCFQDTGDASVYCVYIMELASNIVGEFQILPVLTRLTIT

## CC(=O)N[C@H]1[C@H]([C@H](O)[C@H](O)CO)OC(O)(C(=O)O)C[C@@H]1O (stereo partly shown) [reducing Sia]
  STD NMR: the protein was able to bind the reducing sialic acid produced during the hydrolysis reaction
